The record followed here is patent publication US5663149A, “Human cancer inhibitory pentapeptide heterocyclic and halophenyl amides” (priority 1994, dated 1997).

For assay [1], the system named is SF-295 (CNS). The assay is described as follows: NCI human tumor cell line growth inhibition, SF-295. The note with it: CNS SF-295, 48 hours. Format: cell-based. The method, then: (§1) The only difference is historical usage.
(§2) Percent Growths are calculated for each dose.
(§3) This is the "baseline count", or "Tzero reading".

For assay [2], the system named is SK-MEL-5 (Melanoma). The assay is described as follows: NCI human tumor cell line growth inhibition, SK-MEL-5. The class given is cell-based. The note with it: for GI-50 / LC-50 / TGI: Melanoma SK-MEL-5, 48 hours. The method, then:
as §1, §2, §3

The test system of assay [3] is OVCAR-3 (Ovarian). Description: NCI human tumor cell line growth inhibition, OVCAR-3. Format: cell-based. The note with it: Ovarian OVCAR-3, 48 hours. The method, then:
as §1, §2, §3

Assay [4] has as its system PS-388 (Mouse Leukemia). The assay is described as follows: P-388 mouse leukemia cell growth inhibition. Particulars: Mouse Leukemia PS-388. The class given is cell-based. The method, then:
as §1, §2, §3

The test system of assay [5] is KM20L2 (Colon). Description: NCI human tumor cell line growth inhibition, KM20L2. Format: cell-based. The note with it: Colon KM20L2, 48 hours. The method, then:
as §1, §2, §3

Assay [6] concerns A498 (Renal). Particulars: Renal A498, 48 hours.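 Note: NCI protocol, compound given at five doses from 0.01 to 100 µg/ml, percent growth versus untreated controls relative to cell count at time zero, regression on log dose.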
Text: The following measures are used to express drug activity by giving the drug dose which reduces cell growth to a specified percentage of growth:
There is no mathematical difference between ED50 and GI50, which are both calculated using the same formula. The only difference is historical usage.
TGI, (Total Growth Inhibition), is the drug dose needed to yield zero percent growth, i.e., just as many cells at the end of the experiment as were present in the beginning. Whether just as many cells were killed as were produced (steady state), or no growth occurred (total inhibition), cannot be distinguished.
Each drug is tested at five (5) doses: 100-10-1-0.1-0.01 μg/ml. Percent Growths are calculated for each dose. […] The log of the dose is used during the regression computation.
At the start of an experiment, cells from the in vitro cell cultures are inoculated into the appropriate tubes or microtiter plates. One set of control tubes/plates is immediately counted to determine the number of cells at the start of the experiment. This is the "baseline count", or "Tzero reading". At the end of the experiment (48 hours later) a second set of control tubes/plates is analyzed to determine the "Control Growth" value. The growth (or death) of cells relative to the initial quantity of cells is used to define the "Percent of Growth".
Assay [7] has as its system NCI-H460 (Lung-NSC). Description: NCI human tumor cell line growth inhibition, NCI-H460. The note with it: Lung-NSC NCI-H460, 48 hours. The class given is cell-based. The method, then: as §1, §2, §3

Where only a bound is given, the exact number is not on record here.

The term TGI denotes the concentration giving total growth inhibition. Low values mean more potent growth arrest, high ones less potent growth arrest. Take “L-Dolavalyl-L-Valyl-N-Methyl-(S,S,R)-Dolaisoleuinyl-(S,R,R)-Dolaproinyl-L- Methionine N-4-Chlorophenyl Amide [9e]”: the GI-50 is 0.0000023 µg/mL in assay [1]; 0.00000033 µg/mL in assay [2]; 0.00000045 µg/mL in assay [3]; 0.00000084 µg/mL in assay [5]; 0.0000035 µg/mL in assay [6]; 0.0000022 µg/mL in assay [7]. Also, the LC-50 in assay [1], in assay [2], in assay [3], in assay [5], in assay [6] and in assay [7] was greater than 0.00001 µg/mL throughout. For the same substance, the TGI in assay [1] is greater than 0.01 ng/mL; in assay [2], greater than 0.01 ng/mL; in assay [3], 0.0042 ng/mL; in assay [5], 0.0051 ng/mL; in assay [6], greater than 0.01 ng/mL; in assay [7] it was 0.0085 ng/mL. Besides, the ED-50 in assay [4] was 0.000603 µg/mL.

Regarding “L-Dolavalyl-L-Valyl-N-Methyl-(S,S,R)-Dolaisoleuinyl-(S,R,R)-Dolaproinyl-L- Methionine N-4-Fluorophenyl Amide [9a]”, the GI-50 in assay [1] worked out at 0.0001 µg/mL; in assay [2] it was 0.000038 µg/mL; in assay [3], 0.000049 µg/mL; in assay [5], 0.00005 µg/mL; in assay [6], 0.00025 µg/mL; in assay [7], 0.000089 µg/mL. Besides, the LC-50 in assay [1], in assay [2], in assay [3], in assay [5], in assay [6] and in assay [7] was greater than 0.001 µg/mL throughout. Also, the TGI is greater than 1 ng/mL in assay [1]; 0.57 ng/mL in assay [2]; 0.33 ng/mL in assay [3]; 0.39 ng/mL in assay [5]; greater than 1 ng/mL in assay [6]; 0.66 ng/mL in assay [7]. Also, the ED-50 in assay [4] came out at 0.000317 µg/mL.

Take “L-Dolavalyl-L-Valyl-N-Methyl-(S,S,R)-Dolaisoleuinyl-(S,R,R)-Dolaproinyl-L- Phenylalanine N-2,5-Dichlorophenyl Amide [9h]”: the GI-50 was determined as 0.0000036 µg/mL in assay [1]; 0.0000031 µg/mL in assay [2]; 0.0000031 µg/mL in assay [3]; 0.0000042 µg/mL in assay [5]; 0.000016 µg/mL in assay [6]; 0.0000029 µg/mL in assay [7]. Also, the LC-50 in assay [1], in assay [2], in assay [3], in assay [5], in assay [6] and in assay [7] was greater than 0.0001 µg/mL each time. Moreover, the TGI was greater than 0.1 ng/mL in assay [1]; greater than 0.1 ng/mL in assay [2]; 0.017 ng/mL in assay [3]; 0.037 ng/mL in assay [5]; greater than 0.1 ng/mL in assay [6]; 0.012 ng/mL in assay [7]. The substance further had an ED-50 in assay [4] of 0.0000482 µg/mL.

Turning to “L-Dolavalyl-L-Valyl-N-Methyl-(S,S,R)-Dolaisoleuinyl-(S,R,R)-Dolaproinyl-L- Phenylalanine N-2-(6-Chloro)benzothiazole Amide [9k]”, the GI-50 in assay [1] was found to be 0.000022 µg/mL; in assay [2], 0.000003 µg/mL; in assay [3], 0.0000043 µg/mL; in assay [5] it was 0.000022 µg/mL; in assay [6] it was 0.000031 µg/mL; in assay [7] it was 0.0000044 µg/mL. The TGI was greater than 0.1 ng/mL in assay [1]; greater than 0.1 ng/mL in assay [2]; 0.027 ng/mL in assay [3]; 0.072 ng/mL in assay [5]; greater than 0.1 ng/mL in assay [6]; 0.063 ng/mL in assay [7]. Besides, the ED-50 in assay [4] turned out to be 0.000383 µg/mL.

“L-Dolavalyl-L-Valyl-N-Methyl-(S,S,R)-Dolaisoleuinyl-(S,R,R)-Dolaproinyl-L- Phenylalanine N-2-(6-Fluoro)benzothiazole Amide [9j]”: the GI-50 in assay [1] is 0.0000044 µg/mL; in assay [2], 0.0000013 µg/mL; in assay [3] it was 0.0000031 µg/mL; in assay [5], 0.0000033 µg/mL; in assay [6] it was 0.000016 µg/mL; in assay [7] it was 0.0000041 µg/mL. Further, the TGI in assay [1] was greater than 0.1 ng/mL; in assay [2], greater than 0.1 ng/mL; in assay [3], 0.012 ng/mL; in assay [5] it was 0.013 ng/mL; in assay [6], greater than 0.1 ng/mL; in assay [7], 0.036 ng/mL. The substance also displayed an ED-50 in assay [4] of 0.000227 µg/mL.

For the substance “L-Dolavalyl-L-Valyl-N-Methyl-(S,S,R)-Dolaisoleuinyl-(S,R,R)-Dolaproinyl-L- Phenylalanine N-3-Chlorophenyl Amide [9d]”, the GI-50 in assay [1] is 0.000041 µg/mL; in assay [2] it was less than 1e-12 µg/mL; in assay [3], 0.000018 µg/mL; in assay [5], 0.000007 µg/mL; in assay [6], 0.00012 µg/mL; in assay [7] it was 0.0000094 µg/mL. In addition, the LC-50 in assay [1], in assay [2], in assay [3], in assay [5], in assay [6] and in assay [7] was greater than 0.01 µg/mL each time. Moreover, the TGI in assay [1] is greater than 1 ng/mL; in assay [2], 5.1 ng/mL; in assay [3], 0.16 ng/mL; in assay [5], 0.19 ng/mL; in assay [6], greater than 1 ng/mL; in assay [7], 0.11 ng/mL. Further, the “human tumor inhibiting activity” value in assay [2] (Melanoma SK-MEL-5 cell line, statement in words) is “unprecedented and extraordinary human tumor inhibiting activity”. The substance further returned an ED-50 in assay [4] of 0.00258 µg/mL.

Regarding “L-Dolavalyl-L-Valyl-N-Methyl-(S,S,R)-Dolaisoleuinyl-(S,R,R)-Dolaproinyl-L- Phenylalanine N-4-Chlorophenyl Amide [9f]”, the GI-50 was 0.0000025 µg/mL in assay [1]; 0.0000002 µg/mL in assay [2]; 0.0000014 µg/mL in assay [3]; 0.0000029 µg/mL in assay [5]; 0.000007 µg/mL in assay [6]; 0.0000018 µg/mL in assay [7]. Also, the LC-50 in assay [1], in assay [2], in assay [3], in assay [5], in assay [6] and in assay [7] was greater than 0.0001 µg/mL in each case. The TGI was greater than 0.1 ng/mL in assay [1]; 0.047 ng/mL in assay [2]; 0.0056 ng/mL in assay [3]; 0.0084 ng/mL in assay [5]; greater than 0.1 ng/mL in assay [6]; 0.01 ng/mL in assay [7]. Moreover, the ED-50 in assay [4] turned out to be 0.0000452 µg/mL.

With “L-Dolavalyl-L-Valyl-N-Methyl-(S,S,R)-Dolaisoleuinyl-(S,R,R)-Dolaproinyl-L- Proline N-2-Benzothiazole Amide [9n]”, the GI-50 stood at 0.000035 µg/mL in assay [1]; 0.0000098 µg/mL in assay [2]; 0.000027 µg/mL in assay [3]; 0.000029 µg/mL in assay [5]; 0.000081 µg/mL in assay [6]; 0.000031 µg/mL in assay [7]. For the same substance, the concentration for total growth inhibition (TGI) in assay [1] is greater than 0.1 ng/mL; in assay [2] it was greater than 0.1 ng/mL; in assay [3] it was 0.079 ng/mL; in assay [5], greater than 0.1 ng/mL; in assay [6] it was greater than 0.1 ng/mL; in assay [7], greater than 0.1 ng/mL. Further, the ED-50 in assay [4] worked out at 0.00083 µg/mL.

As for “L-Dolavalyl-L-Valyl-N-Methyl-(S,S,R)-Dolaisoleuinyl-(S,R,R)-Dolaproinyl-L- Proline N-3-Quinoline Amide [9q]”, the GI-50 in assay [1] is 0.00036 µg/mL; in assay [2], 0.00011 µg/mL; in assay [3], 0.000086 µg/mL; in assay [5] it was 0.00033 µg/mL; in assay [6], 0.00041 µg/mL; in assay [7] it was 0.0003 µg/mL. Also, the LC-50 in assay [1], in assay [2], in assay [3], in assay [5], in assay [6] and in assay [7] was greater than 0.0001 µg/mL throughout. Also, the TGI in assay [1], in assay [2], in assay [3], in assay [5], in assay [6] and in assay [7] was greater than 0.1 ng/mL throughout. In assay [4], this substance registered an ED-50 of 0.000415 µg/mL.
